# Results: publication PMC11327025 (2024)
# How the values were obtained:
# [1] = test system: Apt0 (FAM) (DNA, aptamer) CTGTTTGGTAGGCAG; test: graphene oxide fluorescence assay; conditions: aptamer 0-250 nM titrated against 1.5 μM MNZ, 2 h
# [2] = test system: Apt8 (FAM) (DNA, aptamer) CTGTTTGCTAGGCAG; test: graphene oxide fluorescence assay; conditions: aptamer 0-250 nM titrated against 1.5 μM MNZ, 2 h
# [3] = test system: Apt1-3 (FAM) (DNA, aptamer) CTGTTTGCTACGCAG; test: graphene oxide fluorescence assay; conditions: aptamer 0-250 nM titrated against 1.5 μM MNZ, 2 h; abstract prints error 25.59
# [4] = test system: Apt1-3 (DNA, aptamer) CTGTTTGCTACGCAG; test: exonuclease I/III digestion, SYBR Gold fluorescence; conditions: 0.25 μM MNZ, 25 °C, aptamer varied
# [5] = test system: Apt11 (FAM) (DNA, aptamer) CTGTTTGGTACGCAG; test: graphene oxide fluorescence assay; conditions: aptamer 0-250 nM titrated against 1.5 μM MNZ, 2 h
structure (smiles),measurement,setting,value
Cc1ncc([N+](=O)[O-])n1CCO,Kd,[1],154.28 ± 51.87 nM
same,Kd,[2],126.18 ± 41.91 nM
same,Kd,[3],92.60 ± 25.58 nM
same,binding,[4],yes
same,Kd,[5],151.49 ± 56.08 nM
